The IC50 is the point on the concentration scale where inhibition reaches its midpoint.

Experimental findings from ChEMBL document CHEMBL1136624, “Synthesis and anticancer effect of chrysin derivatives” (Bioorg Med Chem Lett, 2003) are described below.

The test system of one test is SGC-7901. The experiment in a line: In vitro inhibitory concentration required against human gastric adenocarcinoma SGC-7901 cell line. It is filed as functional, cell-based.
For another test, the system named is HT-29. Put plainly: In vitro inhibitory concentration required against human colorectal adenocarcinoma HT-29 cell line. It is filed as functional, cell-based.

SMILES strings stand for the structures.

Take `CC(=O)Oc1cc(O)c2c(=O)cc(-c3ccccc3)oc2c1`: the figures for the IC50 with SGC-7901 and in the test with HT-29 were 3600 nM and 3800 nM, respectively.

As to `COc1c([N+](=O)[O-])c(O)c2c(=O)cc(-c3ccccc3)oc2c1I`, the figures for the IC50 with SGC-7901 and in the test with HT-29 were 6400 nM and 2300 nM, respectively.

Turning to `COc1cc(OC)c2c(=O)cc(-c3ccccc3)oc2c1I`, the figures for the IC50 in the test with SGC-7901 and in the test with HT-29 were 2200 nM and 2600 nM, respectively.

`COc1cc(OC)c2c(=O)cc(-c3ccccc3)oc2c1` [CHRYSIN DIMETHYL ETHER]: the results for the half-inhibitory concentration (IC50) in the test with SGC-7901 and in the test with HT-29 were 3700 nM and 2000 nM, respectively.

Consider `O=c1cc(-c2ccccc2)oc2c(Br)c(O)c(Br)c(O)c12`, for which the figures for the IC50 in the test with SGC-7901 and in the test on HT-29 were 5100 nM and 4000 nM, respectively.

With `COc1cc(O)c2c(=O)cc(-c3ccccc3)oc2c1Br`, the IC50 with SGC-7901 stood at 2500 nM; with HT-29 it was 1900 nM.

Regarding `O=c1cc(-c2ccccc2)oc2c(I)c(O)c(I)c(O)c12`, the values for the IC50 in the test with SGC-7901 and in the test with HT-29 were 2900 nM and 4400 nM, respectively.

For `O=c1cc(-c2ccccc2)oc2c([N+](=O)[O-])c(O)cc(O)c12`, the IC50 in the test on SGC-7901 worked out at 2800 nM; with HT-29, 2300 nM.

`CC(=O)Oc1c(I)c(O)c2c(=O)cc(-c3ccccc3)oc2c1I`: the 50% inhibitory concentration (IC50) worked out at 4200 nM in the test on SGC-7901 and 3000 nM with HT-29.

Consider `COc1cc(OC)c2c(=O)cc(-c3ccccc3)oc2c1C(F)(F)F`, for which the IC50 worked out at 5900 nM in the test on SGC-7901 and 2300 nM in the test on HT-29.

As for `CC(=O)Oc1cc(OC(C)=O)c2c(=O)cc(-c3ccccc3)oc2c1` [CHRYSIN DIACETATE], the values for the IC50 in the test with SGC-7901 and in the test with HT-29 were 4500 nM and 2600 nM, respectively.

Compound `CC(=O)Oc1c(C(F)(F)F)c(O)c2c(=O)cc(-c3ccccc3)oc2c1C(F)(F)F` showed an IC50 in the test on HT-29 of 2900 nM.

As to `O=c1cc(-c2ccccc2)oc2cc(O)cc(O)c12` [CHRYSIN], the IC50 in the test on SGC-7901 was 5800 nM; in the test on HT-29, 3100 nM.
